Results published in patent US20250197372A1 (priority 2020, published 2025).
Like-named read-outs stand apart in the source and are kept apart here.

Legend:
Assay type in all cases: biochemical
[1] = target: T1, recombinant alpha-glucosidase I (human full-length glucosidase I, Glu 1) (Homo sapiens, UniProt Q13724); test: Alpha-glucosidase I assay (Amplex Red glucose detection, synthetic trisaccharide substrate)
T1 construct: 6-His (C); made in house; host or cells: HEK-293T cells transduced with BacMam virus (virus raised in Sf9)
T1 sequence (Q13724 1-837): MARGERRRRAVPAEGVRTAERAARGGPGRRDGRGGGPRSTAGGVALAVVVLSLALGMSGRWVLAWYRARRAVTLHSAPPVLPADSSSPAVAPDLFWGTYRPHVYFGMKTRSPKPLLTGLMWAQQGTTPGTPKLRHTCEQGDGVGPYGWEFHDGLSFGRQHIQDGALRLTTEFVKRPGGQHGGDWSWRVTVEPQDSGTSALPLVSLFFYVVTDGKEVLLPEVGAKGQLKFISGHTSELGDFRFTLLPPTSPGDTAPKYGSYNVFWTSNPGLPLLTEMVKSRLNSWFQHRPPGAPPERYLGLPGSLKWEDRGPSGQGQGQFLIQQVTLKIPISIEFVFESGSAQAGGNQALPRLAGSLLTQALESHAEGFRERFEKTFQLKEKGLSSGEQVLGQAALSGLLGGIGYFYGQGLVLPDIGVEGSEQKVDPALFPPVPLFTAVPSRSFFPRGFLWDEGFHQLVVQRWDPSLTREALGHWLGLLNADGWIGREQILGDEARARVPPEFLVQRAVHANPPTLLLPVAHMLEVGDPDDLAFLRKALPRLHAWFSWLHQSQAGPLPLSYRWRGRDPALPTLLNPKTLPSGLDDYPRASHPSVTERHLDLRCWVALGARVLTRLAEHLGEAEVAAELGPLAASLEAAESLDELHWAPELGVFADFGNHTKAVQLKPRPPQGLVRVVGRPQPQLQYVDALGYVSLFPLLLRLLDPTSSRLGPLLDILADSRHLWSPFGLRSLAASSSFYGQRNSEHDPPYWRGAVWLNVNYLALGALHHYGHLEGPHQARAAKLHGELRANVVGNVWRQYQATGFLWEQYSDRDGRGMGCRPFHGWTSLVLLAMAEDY
Excerpt: Preparation of Human Full-length Glucosidase I: The amino acid sequence for human full-length glucosidase I was obtained from UniProt (Q13724). […] The entry vector was cloned into Kemp Proteins' BacMam Destination vector and transformed into chemically competent DH10Bac E. coli cells to produce recombinant glucosidase I bacmids. Bacmid isolates were obtained following two rounds of blue-white screening and they were transfected into Sf9 cells cultivated in serum-free medium (Thermo Fisher Scientific). Four days post-transfection the culture supernatants containing virus were harvested and filter sterilized. […] A multiplicity of infection (MOI, ratio of virus to cells) of 4 was selected. Soluble glucosidase I was detected by anti-His western blots in the soluble cell extract following extraction with 1% V/V NP40 for 30 minutes at 0° C. Productions and purifications of glucosidase I were carried out at scales ranging from 1-liter to 10-liters. […] In another example production at the 10-liter scale was performed in stirred-tank bioreactors at 27° C. and 80 rpm with dissolved oxygen level at 50% of oxygen in air and pH between 7.0 and 7.2. Cells were transduced at MOI of 4 and the cell pellet was harvested at 48 hours post-transduction using centrifugation.
The pellet from a 10-liter culture was lysed by resuspending the pellet into 1-liter of 50 mM NaH2PO4—H2O+300 mM NaCl+10 mM Imidazole+1 mM PMSF+1% V/V NP40 pH 8. The suspension was incubated on ice for 30 minutes and clarified at 500×g and 4° C. The supernatant was collected and clarified at 20,000×g for 30 minutes at 4° C. and the supernatant was collected and filtered through a 0.2 micron filter. […] The column was washed with 20 column volumes (CV) of 50 mM NaH2PO4-H2O+300 mM NaCl+10 mM Imidazole pH 8 and eluted using a linear gradient of 0-60% 50 mM NaH2PO4-H2O+300 mM NaCl+500 mM Imidazole pH 8 over 90 minutes. at 5 mL per minute. Fractions (25 mL) were collected and analyzed by SDS PAGE and Western Blot (reducing anti-His). Fractions containing purified glucosidase I were pooled and dialyzed into storage buffer (20 mM Tris+300 mM NaCl+50 mM L-arginine+10 mM EDTA+0.01% V/V Tween 80 pH 7.5). The final material was filter sterilized and stored at 4° C. and the working dilution confirmed by a use-test in the indicated assay conditions prior to use.
Alpha-glucosidase I Assay: The assay was performed by incubating recombinant alpha-glucosidase I enzyme with multiple dilutions of test compounds for 60 minutes at 37° C. A synthetic trisaccharide substrate analog was then introduced to the mixture for 90 minutes at 37° C. The reaction was then stopped with 1.5M Tris (pH 8). In the absence of inhibition, the terminal glucose of the substrate was hydrolyzed by the enzyme. The D-glucose product was detected using Amplex Red Glucose/Glucose Oxidase Assay Kit (Invitrogen) following the manufacturer's directions where glucose oxidase reacts with D-glucose to form D-gluconolactone and H2O2 which then reacts with the Amplex Red reagent to generate a red-fluorescent oxidation product (560 nm, excitation; 590 nm, emission). […] Percent inhibition is plotted as a function of concentration for each compound, compared to control reactions. The IC50 was determined using a 4-PL curve fit and serves as a measure of relative inhibitory activity of each test compound (see Table 3).

[2] = target: recombinant human GAA (acid alpha-glucosidase) (Homo sapiens, UniProt P10253); test: Acid alpha-glucosidase (GAA) assay (4-methylumbelliferyl-alpha-D-pyranoside substrate, fluorescence)
Experimental: Acid alpha-glucosidase (GAA): To analyze inhibitory effects of a test compound, commercially available recombinant human GAA was incubated with multiple dilutions of test compound for 60 minutes at 37° C. 4-methylumbelliferyl-alpha-D-pyranoside was then introduced to the mixture as the substrate. 1,4-methyllumbelliferone is generated, and after an incubation for 20 minutes at 37° C., the reaction was stopped with the stop solution (0.5M glycine 0.3M NaOH pH 10). 1,4-methyllumbelliferone is detected by fluorescence (excitation at 365 nm, emission at 440 nm). Relative fluorescence compared to untreated enzymatic activity and test compound concentration is plotted as a function of percent inhibition. The IC50 is determined using a 4-PL curve fit as the measure of relative inhibitory activity of each test compound (see Table 3).

[3] = target: rat maltase (partially purified alpha-glucosidase from intestinal rat powder); test: Intestinal alpha-glucosidase assay, maltose substrate (Glucose GO Kit)
Experimental: (§1) Intestinal alpha-glucosidases (rat maltase and sucrase): Intestinal alpha-glucosidases act upon 1,4-alpha-glucoside bonds, breaking down disaccharides to glucose. To perform this assay, partially purified alpha-glucosidase from intestinal rat powder was incubated for 60 minutes at 37° C. with multiple dilutions of test compounds. Maltose or Sucrose respectively was then introduced as substrate to the mixture and incubated for 30 minutes at 37° C. The reaction was stopped by a 5-minute incubation at 90° C. and the resultant glucose production is detected using Sigma's Glucose GO Kit. Percent inhibition was then plotted as a function of concentration for each test compound. The IC50 was determined using a 4-PL curve fit and serves as the measure of relative inhibition of each test compound (see Table 3).

[4] = target: rat sucrase (partially purified alpha-glucosidase from intestinal rat powder) (Rattus norvegicus, UniProt P23739); test: Intestinal alpha-glucosidase assay, sucrose substrate (Glucose GO Kit)
rat sucrase (partially purified alpha-glucosidase from intestinal rat powder), sequence (P23739 whole entry): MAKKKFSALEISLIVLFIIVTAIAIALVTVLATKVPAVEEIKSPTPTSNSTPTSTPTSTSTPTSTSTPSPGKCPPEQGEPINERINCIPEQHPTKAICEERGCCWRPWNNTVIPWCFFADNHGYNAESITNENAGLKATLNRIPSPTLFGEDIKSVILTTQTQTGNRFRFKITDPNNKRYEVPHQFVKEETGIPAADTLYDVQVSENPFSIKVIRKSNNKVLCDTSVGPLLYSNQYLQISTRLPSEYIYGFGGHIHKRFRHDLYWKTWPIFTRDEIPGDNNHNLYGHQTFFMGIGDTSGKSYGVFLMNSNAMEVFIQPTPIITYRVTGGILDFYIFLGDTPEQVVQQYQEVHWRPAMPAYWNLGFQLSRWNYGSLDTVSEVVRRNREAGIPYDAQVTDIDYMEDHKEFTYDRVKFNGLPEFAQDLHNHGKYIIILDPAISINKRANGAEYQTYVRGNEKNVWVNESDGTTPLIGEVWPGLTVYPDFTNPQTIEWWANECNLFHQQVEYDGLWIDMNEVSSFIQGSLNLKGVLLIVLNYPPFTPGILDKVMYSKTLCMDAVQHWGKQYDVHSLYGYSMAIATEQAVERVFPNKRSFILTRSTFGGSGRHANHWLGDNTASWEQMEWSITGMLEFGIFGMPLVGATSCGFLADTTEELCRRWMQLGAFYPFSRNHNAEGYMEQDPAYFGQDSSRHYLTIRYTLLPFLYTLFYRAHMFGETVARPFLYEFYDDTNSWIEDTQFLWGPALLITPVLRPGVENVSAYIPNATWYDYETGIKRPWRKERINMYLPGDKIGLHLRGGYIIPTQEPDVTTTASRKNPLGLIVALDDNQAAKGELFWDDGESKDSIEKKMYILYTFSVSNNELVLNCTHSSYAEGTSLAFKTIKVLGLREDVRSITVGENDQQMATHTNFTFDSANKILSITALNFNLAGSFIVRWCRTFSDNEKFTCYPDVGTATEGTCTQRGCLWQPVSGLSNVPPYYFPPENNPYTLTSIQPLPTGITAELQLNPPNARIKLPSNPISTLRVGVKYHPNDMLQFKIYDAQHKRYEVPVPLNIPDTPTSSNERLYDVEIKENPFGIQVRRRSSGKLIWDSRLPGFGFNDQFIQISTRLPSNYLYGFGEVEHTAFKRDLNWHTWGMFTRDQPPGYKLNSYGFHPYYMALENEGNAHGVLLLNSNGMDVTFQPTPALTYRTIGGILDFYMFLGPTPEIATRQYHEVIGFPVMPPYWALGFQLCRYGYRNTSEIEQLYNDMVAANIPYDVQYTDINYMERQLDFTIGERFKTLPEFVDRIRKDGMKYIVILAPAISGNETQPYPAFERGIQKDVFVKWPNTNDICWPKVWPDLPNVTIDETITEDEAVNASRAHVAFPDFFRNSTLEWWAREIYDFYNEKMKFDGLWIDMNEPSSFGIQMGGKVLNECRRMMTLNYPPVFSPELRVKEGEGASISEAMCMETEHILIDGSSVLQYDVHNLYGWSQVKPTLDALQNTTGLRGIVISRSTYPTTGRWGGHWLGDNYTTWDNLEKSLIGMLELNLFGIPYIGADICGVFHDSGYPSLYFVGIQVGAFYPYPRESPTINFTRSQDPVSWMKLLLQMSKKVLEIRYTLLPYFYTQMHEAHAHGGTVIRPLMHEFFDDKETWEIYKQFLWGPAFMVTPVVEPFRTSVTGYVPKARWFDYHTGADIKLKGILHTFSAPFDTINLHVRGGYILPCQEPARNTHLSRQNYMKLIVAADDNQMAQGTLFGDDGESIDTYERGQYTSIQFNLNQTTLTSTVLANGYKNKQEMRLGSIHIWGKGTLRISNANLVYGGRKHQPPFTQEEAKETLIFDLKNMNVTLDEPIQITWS
Experimental: as §1

[5] = Glucosidase 1, read-out: Glu 1 IC50

`Cc1cc(-c2ccco2)ccc1NCc1ccc(CN2C[C@H](O)[C@@H](O)[C@H](O)[C@H]2CO)cc1` [Compound 1324, (2R,3R,4R,5S)-1-{[4-({[4-(furan-2-yl)-2-methylphenyl]amino}methyl)phenyl]methyl}-2-(hydroxymethyl)piperidine-3,4,5-triol] was tested, and the IC50 [1] was under 1 nM, the IC50 [2] was 80 nM and the IC50 [3] was under 1 nM. The IC50 [4] was under 1 nM.

For `OC[C@@H]1[C@@H](O)[C@H](O)[C@@H](O)CN1CCCCCCNc1cc(-c2ncccn2)cc(C(F)(F)F)c1` [Compound 1131, (2R,3R,4R,5S)-2-(hydroxymethyl)-1-(6-{[3-(pyrimidin-2-yl)-5-(trifluoromethyl)phenyl]amino}hexyl)piperidine-3,4,5-triol], the IC50 [1, 5] was 232 nM, the IC50 [2] was 25 nM and the IC50 [3] was 8 nM. It also gave an IC50 [4] of 40 nM.

For `O=[N+]([O-])c1cc(C2CC2)ccc1NCCCCCCN1C[C@H](O)[C@@H](O)[C@H](O)[C@H]1CO` [Compound 1136, (2R,3R,4R,5S)-1-{6-[(4-cyclopropyl-2-nitrophenyl)amino]hexyl}-2-(hydroxymethyl)piperidine-3,4,5-triol], the IC50 [1, 5] was 25 nM, the IC50 [2] was 9 nM and the IC50 [3] was under 1 nM. For the same compound, the IC50 [4] was under 1 nM.

`COc1cc(NCCCCCCN2C[C@H](O)[C@@H](O)[C@H](O)[C@H]2CO)cc(C2CCCO2)c1` (stereo partly drawn) [Compound 1146, (2R,3R,4R,5S)-2-(hydroxymethyl)-1-(6-{[3-methoxy-5-(oxolan-2-yl)phenyl]amino}hexyl)piperidine-3,4,5-triol] gave an IC50 [1, 5] of 511 nM, an IC50 [2] of 68 nM and an IC50 [3] of 23 nM. It also gave an IC50 [4] of 92 nM.

Compound `COc1cc(NCCCCCCN2C[C@H](O)[C@@H](O)[C@H](O)[C@H]2CO)cc(-c2ccccc2)c1` [Compound 1150, (2R,3R,4R,5S)-2-(hydroxymethyl)-1-[6-({5-methoxy-[1,1′-biphenyl]-3-yl}amino)hexyl]piperidine-3,4,5-triol] has an IC50 [1, 5] of 80 nM, an IC50 [2] of 45 nM and an IC50 [3] of under 1 nM. The IC50 [4] was under 1 nM.

Work on `[N-]=[N+]=Nc1ccc(NCCc2ccc(CCN3C[C@H](O)[C@@H](O)[C@H](O)[C@H]3CO)c3c2OCCO3)c([N+](=O)[O-])c1` [Compound 1173, (2R,3R,4R,5S)-1-[2-(8-{2-[(4-azido-2-nitrophenyl)amino]ethyl}-2,3-dihydro-1,4-benzodioxin-5-yl)ethyl]-2-(hydroxymethyl)piperidine-3,4,5-triol] yielded an IC50 [1, 5] of 157 nM, an IC50 [2] of 1800 nM and an IC50 [3] of 48 nM. It also gave an IC50 [4] of 456 nM.

Work on `COc1cc(CC2CCOC2)cc(NCCCCCCN2C[C@H](O)[C@@H](O)[C@H](O)[C@H]2CO)c1` (stereo partly drawn) [Compound 1141, (2R,3R,4R,5S)-2-(hydroxymethyl)-1-[6-({3-methoxy-5-[(oxolan-3-yl)methyl]phenyl}amino)hexyl]piperidine-3,4,5-triol] yielded an IC50 [1, 5] of 1160 nM, an IC50 [2] of 188 nM and an IC50 [3] of 43 nM. The IC50 [4] was 696 nM.

In the case of `C[C@@H]1CN(c2ccc(NCc3ccc(CN4C[C@H](O)[C@@H](O)[C@H](O)[C@H]4CO)cc3)c([N+](=O)[O-])c2)C[C@H](C)O1` [Compound 1014], the IC50 [1] is reported as 1 nM, the IC50 [2] is reported as 30 nM and the IC50 [3] is reported as 6 nM. It also gave an IC50 [4] of 15 nM.

`COc1cc(NCCCCCCN2C[C@H](O)[C@@H](O)[C@H](O)[C@H]2CO)cc(C2=CCCCC2)c1` [Compound 1149, (2R,3R,4R,5S)-1-(6-{[3-(cyclohex-1-en-1-yl)-5-methoxy-phenyl]amino}hexyl)-2-(hydroxymethyl)piperidine-3,4,5-triol] showed an IC50 [1, 5] of 264 nM, an IC50 [2] of 66 nM and an IC50 [3] of under 1 nM. The IC50 [4] was under 1 nM.

For `COc1cc(C#N)cc(NCCc2ccc(CCN3C[C@H](O)[C@@H](O)[C@H](O)[C@H]3CO)cc2)c1` [Compound 1133, 3-methoxy-5-{[2-(4-{2-[(2R,3R,4R,5S)-3,4,5-trihydroxy-2-(hydroxymethyl)piperidin-1-yl]ethyl}phenyl)ethyl]amino}benzonitrile], the IC50 [1, 5] was 1280 nM, the IC50 [2] was 542 nM and the IC50 [3] was 97 nM. For the same compound, the IC50 [4] was 237 nM.

`OC[C@@H]1[C@@H](O)[C@H](O)[C@@H](O)CN1CCCCCCNc1cc(Cl)cc(-c2cnccn2)c1` [Compound 1196, (2R,3R,4R,5S)-1-(6-{[3-chloro-5-(pyrazin-2-yl)phenyl]amino}hexyl)-2-(hydroxymethyl)piperidine-3,4,5-triol] gave an IC50 [1, 5] of 105 nM, an IC50 [2] of 10 nM and an IC50 [3] of 2 nM. For the same compound, the IC50 [4] was 175 nM.

`COc1cc(NCCCCCCN2C[C@H](O)[C@@H](O)[C@H](O)[C@H]2CO)cc(C2=CCCO2)c1` [Compound 1147, (2R,3R,4R,5S)-1-(6-{[3-(4,5-dihydrofuran-2-yl)-5-methoxyphenyl]amino}hexyl)-2-(hydroxymethyl)piperidine-3,4,5-triol] was tested, and the IC50 [1, 5] was 263 nM, the IC50 [2] was 38 nM and the IC50 [3] was 8 nM. It also gave an IC50 [4] of 40 nM.

Compound `CS(=O)(=O)c1cc(Br)cc(NCc2cccc(CN3C[C@H](O)[C@@H](O)[C@H](O)[C@H]3CO)c2)c1` [Compound 1022, (2R,3R,4R,5S)-1-[(3-{[(3-bromo-5-methanesulfonylphenyl)amino]methyl}phenyl)methyl]-2-(hydroxymethyl)piperidine-3,4,5-triol] has an IC50 [1] of 19 nM, an IC50 [2] of 803 nM and an IC50 [3] of 28 nM. For the same compound, the IC50 [4] was 26 nM.
